From US12685735B2 (Foghorn Therapeutics Inc., priority 2020, dated 2026) come the findings set out here.

Like-named read-outs stand apart in the source and are kept apart here.

A word on the IC50: it is the point on the concentration scale where inhibition reaches its midpoint.

One test deals with BRM (Homo sapiens, UniProt P51531). In words: ATPase catalytic activity assay of BRM (ADP-Glo). It is filed as biochemical. The gist of the method: (§1)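 Measurement is luminescence, reflecting ADP produced by ATPase turnover. The two-step ADP-Glo detection consists of ATP depletion for 40 min and ADP-to-ATP conversion with luciferase for 60 min, both at room temperature.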
(In general: ADP-Glo first removes unused ATP, then detects ADP through luciferase.)

Another test has as its target BRG-1 (Homo sapiens, UniProt P51532). Description: ATPase catalytic activity assay of BRG-1 (ADP-Glo). The format is biochemical. Conditions: ATPase catalytic activity, ADP-Glo; for Emax: read-out: BRG1 Max % Inhibition. In short, it runs like this:
as §1

Chain of BRM (P51531 whole entry): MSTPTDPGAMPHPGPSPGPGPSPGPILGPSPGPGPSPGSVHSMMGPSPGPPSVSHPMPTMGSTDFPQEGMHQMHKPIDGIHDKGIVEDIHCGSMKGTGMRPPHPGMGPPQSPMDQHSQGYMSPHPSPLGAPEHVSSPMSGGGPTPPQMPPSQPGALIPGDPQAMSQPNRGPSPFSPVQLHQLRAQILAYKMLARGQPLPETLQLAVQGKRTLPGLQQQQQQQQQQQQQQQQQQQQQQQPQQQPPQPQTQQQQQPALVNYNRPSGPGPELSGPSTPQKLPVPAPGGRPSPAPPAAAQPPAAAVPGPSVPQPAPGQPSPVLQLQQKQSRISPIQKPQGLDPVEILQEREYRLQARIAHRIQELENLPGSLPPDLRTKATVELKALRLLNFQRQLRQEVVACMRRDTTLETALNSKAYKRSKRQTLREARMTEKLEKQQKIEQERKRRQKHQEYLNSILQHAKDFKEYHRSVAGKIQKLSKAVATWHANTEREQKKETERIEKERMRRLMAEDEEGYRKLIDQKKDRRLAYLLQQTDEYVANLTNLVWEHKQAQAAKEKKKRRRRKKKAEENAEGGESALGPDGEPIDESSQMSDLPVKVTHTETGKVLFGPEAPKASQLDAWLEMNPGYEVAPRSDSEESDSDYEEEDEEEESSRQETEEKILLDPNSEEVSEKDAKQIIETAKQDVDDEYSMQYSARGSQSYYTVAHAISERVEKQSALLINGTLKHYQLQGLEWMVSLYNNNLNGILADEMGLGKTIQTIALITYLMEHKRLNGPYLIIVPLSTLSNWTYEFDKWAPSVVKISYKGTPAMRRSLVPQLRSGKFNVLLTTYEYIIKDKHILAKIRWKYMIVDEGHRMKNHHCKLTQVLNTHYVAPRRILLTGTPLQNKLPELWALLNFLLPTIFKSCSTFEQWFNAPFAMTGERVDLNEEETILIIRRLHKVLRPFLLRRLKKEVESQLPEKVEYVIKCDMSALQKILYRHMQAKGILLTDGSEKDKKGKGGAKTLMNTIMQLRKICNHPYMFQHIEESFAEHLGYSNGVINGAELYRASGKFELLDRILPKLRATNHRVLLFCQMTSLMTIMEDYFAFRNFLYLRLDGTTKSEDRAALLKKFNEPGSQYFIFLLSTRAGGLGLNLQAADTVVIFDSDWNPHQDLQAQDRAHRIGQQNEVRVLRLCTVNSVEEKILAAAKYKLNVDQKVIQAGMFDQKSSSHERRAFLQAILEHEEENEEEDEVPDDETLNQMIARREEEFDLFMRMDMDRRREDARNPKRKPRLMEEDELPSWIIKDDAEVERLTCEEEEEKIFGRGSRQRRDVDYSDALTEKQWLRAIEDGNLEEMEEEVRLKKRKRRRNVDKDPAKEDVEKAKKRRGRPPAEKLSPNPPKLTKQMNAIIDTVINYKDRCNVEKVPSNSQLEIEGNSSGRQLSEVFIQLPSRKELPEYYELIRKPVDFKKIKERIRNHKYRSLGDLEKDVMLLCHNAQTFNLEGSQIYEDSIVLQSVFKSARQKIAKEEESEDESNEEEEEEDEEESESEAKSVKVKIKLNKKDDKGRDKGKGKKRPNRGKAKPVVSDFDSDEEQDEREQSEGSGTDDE
Chain of BRG-1 (P51532 whole entry): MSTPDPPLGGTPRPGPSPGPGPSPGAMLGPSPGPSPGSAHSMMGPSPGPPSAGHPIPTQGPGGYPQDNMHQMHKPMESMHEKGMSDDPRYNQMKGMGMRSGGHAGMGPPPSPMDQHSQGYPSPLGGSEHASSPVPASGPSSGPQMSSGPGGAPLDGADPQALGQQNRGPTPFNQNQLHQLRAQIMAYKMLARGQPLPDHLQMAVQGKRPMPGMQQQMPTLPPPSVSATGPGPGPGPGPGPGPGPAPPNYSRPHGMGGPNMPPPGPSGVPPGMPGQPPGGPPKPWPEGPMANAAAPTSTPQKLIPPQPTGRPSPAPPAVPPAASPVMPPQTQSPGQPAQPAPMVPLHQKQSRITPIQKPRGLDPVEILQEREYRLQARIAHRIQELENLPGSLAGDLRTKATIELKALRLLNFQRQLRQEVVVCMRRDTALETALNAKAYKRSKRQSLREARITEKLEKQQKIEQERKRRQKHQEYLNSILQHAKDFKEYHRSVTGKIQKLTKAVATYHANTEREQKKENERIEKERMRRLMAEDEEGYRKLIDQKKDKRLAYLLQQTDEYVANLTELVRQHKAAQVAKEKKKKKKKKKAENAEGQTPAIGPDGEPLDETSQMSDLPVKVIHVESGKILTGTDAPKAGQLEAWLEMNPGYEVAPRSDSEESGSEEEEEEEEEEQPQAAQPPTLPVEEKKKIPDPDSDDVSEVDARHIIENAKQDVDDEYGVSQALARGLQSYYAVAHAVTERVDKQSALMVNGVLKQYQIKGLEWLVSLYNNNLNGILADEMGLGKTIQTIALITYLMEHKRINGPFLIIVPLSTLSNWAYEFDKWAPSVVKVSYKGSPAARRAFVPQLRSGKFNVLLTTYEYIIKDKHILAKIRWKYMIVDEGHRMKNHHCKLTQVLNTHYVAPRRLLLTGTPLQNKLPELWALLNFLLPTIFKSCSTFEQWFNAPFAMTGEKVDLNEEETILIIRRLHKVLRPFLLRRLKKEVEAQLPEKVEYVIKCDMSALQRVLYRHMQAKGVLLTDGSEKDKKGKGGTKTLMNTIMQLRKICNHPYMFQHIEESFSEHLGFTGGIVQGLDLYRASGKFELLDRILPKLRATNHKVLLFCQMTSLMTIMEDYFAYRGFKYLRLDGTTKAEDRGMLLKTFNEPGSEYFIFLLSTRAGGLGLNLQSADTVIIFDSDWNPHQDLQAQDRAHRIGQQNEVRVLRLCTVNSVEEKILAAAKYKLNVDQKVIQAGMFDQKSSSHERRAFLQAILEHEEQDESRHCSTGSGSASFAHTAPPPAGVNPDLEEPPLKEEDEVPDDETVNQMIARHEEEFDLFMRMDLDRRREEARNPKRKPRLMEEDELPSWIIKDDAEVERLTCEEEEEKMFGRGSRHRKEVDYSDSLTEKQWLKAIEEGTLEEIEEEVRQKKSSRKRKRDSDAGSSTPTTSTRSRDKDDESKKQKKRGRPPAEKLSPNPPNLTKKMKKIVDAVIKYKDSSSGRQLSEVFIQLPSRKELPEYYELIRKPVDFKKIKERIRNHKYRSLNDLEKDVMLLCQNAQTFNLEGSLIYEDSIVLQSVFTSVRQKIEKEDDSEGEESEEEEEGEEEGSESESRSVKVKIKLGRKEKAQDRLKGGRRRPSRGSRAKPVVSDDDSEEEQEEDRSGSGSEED

Turning to `Cn1ccc2ccc(-c3csc(NC(=O)CNC(=O)c4ccc5c(c4)C4(CCO5)COC4)n3)cc2c1=O` [Compound 382, N-(2-((4-(2-methyl-1-oxo-1,2-dihydroisoquinolin-7-yl)thiazol-2-yl)amino)-2-oxoethyl)spiro[chromane-4,3′-oxetane]-6-carboxamide], the “BRM Max % Inhibition” value on BRM was over 50%. Also, the figures for the IC50 on BRM (read-out: BRM IC50 (μM)*) and at BRG-1 (read-out: BRG1 IC50 (μM)*) were 0.1 to 1 µM and over 5 µM, respectively. Moreover, the Emax at BRG-1 is over 50%.

Consider `C[C@@]1(C#N)COCc2ccc(C(=O)NCC(=O)Nc3nc(-c4cc(F)cc(C5CCO5)c4)cs3)cc21` (stereo partly drawn) [Compound 316, (R)-4-cyano-N-(2-((4-(3-fluoro-5-(oxetan-2-yl)phenyl)thiazol-2-yl)amino)-2-oxoethyl)-4-methylisochromane-6-carboxamide], for which the “BRM Max % Inhibition” value on BRM was over 95%. Besides, the IC50 at BRM (read-out: BRM IC50 (μM)*) and on BRG-1 (read-out: BRG1 IC50 (μM)*) was under 0.1 µM each time. Further, the Emax on BRG-1 is over 95%.

`CC(C)S(=O)(=O)c1cccc(C(=O)NCC(=O)Nc2nc(-c3cccc(-c4cccc(Cl)c4)c3)cs2)c1` [Compound 28, N-(2-((4-(3′-chloro-[1,1′-biphenyl]-3-yl)thiazol-2-yl)amino)-2-oxoethyl)-3-(isopropylsulfonyl)benzamide]: on BRM, the “BRM Max % Inhibition” value is recorded as over 80%. For the same compound, the IC50 on BRM (BRM IC50 (μM)*) lay within 0.1 to 1 µM; at BRG-1 (BRG1 IC50 (μM)*), 1 to 5 µM.

With `CC1(C#N)CCOc2ccc(C(=O)NCC(=O)Nc3nc(-c4cccc([C@@H]5CC5(F)F)n4)cs3)cc21` (stereo in doubt) [Compound 380, (S)-4-cyano-N-(2-((4-(6-((S)-2,2-difluorocyclopropyl)pyridin-2-yl)thiazol-2-yl)amino)-2-oxoethyl)-4-methylchromane-6-carboxamide], at BRM, the “BRM Max % Inhibition” value is listed as over 85%. Besides, the IC50 on BRM (read-out: BRM IC50 (μM)*) was in the range of 0.1 to 1 µM; on BRG-1 (read-out: BRG1 IC50 (μM)*), 1 to 5 µM. Further, the Emax at BRG-1 is over 85%.

Regarding `Cn1ncc2ccc(-c3csc(NC(=O)CNC(=O)c4ccc5c(c4)[C@](C)(CO)CC5)n3)cc21` [Compound 179, (R)-3-(hydroxymethyl)-3-methyl-N-(2-((4-(1-methyl-1H-indazol-6-yl)thiazol-2-yl)amino)-2-oxoethyl)-2,3-dihydro-1H-indene-5-carboxamide], the “BRM Max % Inhibition” value on BRM was over 80%. For the same compound, the IC50 at BRM (read-out: BRM IC50 (μM)*) was 0.1 to 1 µM; at BRG-1 (read-out: BRG1 IC50 (μM)*), over 5 µM. The Emax at BRG-1 was over 50%.

In the case of `Cn1ncc(-c2cccc(-c3csc(NC(=O)CNC(=O)c4cccc(C(C)(C)CO)c4)n3)n2)n1` [Compound 154, 3-(1-hydroxy-2-methylpropan-2-yl)-N-(2-((4-(6-(2-methyl-2H-1,2,3-triazol-4-yl)pyridin-2-yl)thiazol-2-yl)amino)-2-oxoethyl)benzamide], the “BRM Max % Inhibition” value on BRM is over 90%. Also, the IC50 at BRM (read-out: BRM IC50 (μM)*) was 0.1 to 1 µM; on BRG-1 (read-out: BRG1 IC50 (μM)*), 1 to 5 µM. Further, the Emax on BRG-1 is over 60%.

Regarding `CC(C)(CN)c1cccc(C(=O)NCC(=O)Nc2nc(-c3cccc(CO[C@H]4CC[C@H](O)CC4)c3)cs2)c1` [Compound 62, 3-(1-amino-2-methylpropan-2-yl)-N-(2-((4-(3-((((1R,4R)-4-hydroxycyclohexyl)oxy)methyl)phenyl)thiazol-2-yl)amino)-2-oxoethyl)benzamide], on BRM, the “BRM Max % Inhibition” value was over 80%. Besides, the IC50 is 1 to 5 µM on BRM (read-out: BRM IC50 (μM)*) and over 5 µM at BRG-1 (read-out: BRG1 IC50 (μM)*). Further, on BRG-1, the Emax is over 40%.

For the compound `C[C@@H]1CN(c2cccc(-c3csc(NC(=O)CNC(=O)c4ccc5c(c4)C(F)(F)COC5)n3)n2)C[C@H](C)O1` [Compound 385, N-(2-((4-(6-((cis)-2,6-dimethylmorpholino)pyridin-2-yl)thiazol-2-yl)amino)-2-oxoethyl)-4,4-difluoroisochromane-6-carboxamide], on BRM, the “BRM Max % Inhibition” value was over 95%. Moreover, the IC50 is under 0.1 µM at BRM (read-out: BRM IC50 (μM)*) and 0.1 to 1 µM at BRG-1 (read-out: BRG1 IC50 (μM)*). For the same compound, the Emax at BRG-1 was over 95%.

With `C[C@@H]1CN(c2cccc(-c3csc(NC(=O)CNC(=O)c4ccc5c(c4)C(F)(C(F)F)CCO5)n3)n2)C[C@H](C)O1` (stereo in doubt) [Compound 272, (R)-4-(difluoromethyl)-N-(2-((4-(6-((cis)-2,6-dimethylmorpholino)pyridin-2-yl)thiazol-2-yl)amino)-2-oxoethyl)-4-fluorochromane-6-carboxamide], on BRM, the “BRM Max % Inhibition” value is listed as over 95%. Moreover, the IC50 on BRM (read-out: BRM IC50 (μM)*) and at BRG-1 (read-out: BRG1 IC50 (μM)*) was under 0.1 µM each time. In addition, the Emax on BRG-1 was over 95%.

In the case of `Cc1nccc(-c2cccc(-c3csc(NC(=O)CNC(=O)c4cccc(C(C)(C)CN)c4)n3)c2)n1` [Compound 100], on BRM, the “BRM Max % Inhibition” value is recorded as over 95%. In addition, the IC50 at BRM (read-out: BRM IC50 (μM)*) and at BRG-1 (read-out: BRG1 IC50 (μM)*) was under 0.1 µM throughout. Besides, the “BRG1 Max % Inhibition” value at BRG-1 is listed as over 95%.

As for `CC(C)S(=O)(=O)c1cccc(C(=O)NCC(=O)Nc2nc(-c3cccc(-c4cc(C#N)cc(CO)c4)c3)cs2)c1` [Compound 23, N-(2-((4-(3′-cyano-5′-(hydroxymethyl)-[1,1′-biphenyl]-3-yl)thiazol-2-yl)amino)-2-oxoethyl)-3-(isopropylsulfonyl)benzamide], at BRM, the “BRM Max % Inhibition” value is given as over 90%. The IC50 on BRM (read-out: BRM IC50 (μM)*) and at BRG-1 (read-out: BRG1 IC50 (μM)*) was 0.1 to 1 µM in each case. For the same compound, the Emax at BRG-1 was over 80%.

As for `CCC(C)(O)c1cccc(C(=O)NCC(=O)Nc2nc(-c3cccc(-c4ccncc4)c3)cs2)c1` (centres unmarked) [Compound 79, 3-(2-hydroxybutan-2-yl)-N-(2-oxo-2-((4-(3-(pyridin-4-yl)phenyl)thiazol-2-yl)amino)ethyl)benzamide], the “BRM Max % Inhibition” value at BRM is over 70%. For the same compound, the IC50 on BRM (read-out: BRM IC50 (μM)*) and on BRG-1 (read-out: BRG1 IC50 (μM)*) was 0.1 to 1 µM throughout. The Emax at BRG-1 is over 50%.

On to `C[C@@H](N)C(C)(C)c1cccc(C(=O)NCC(=O)Nc2nc(-c3cccc(-c4ccncc4)c3)cs2)c1` [Compound 109], for which the “BRM Max % Inhibition” value at BRM is reported as over 80%. The IC50 at BRM (read-out: BRM IC50 (μM)*) and on BRG-1 (read-out: BRG1 IC50 (μM)*) was 1 to 5 µM in each case. Further, at BRG-1, the Emax was over 50%.

Take `C[C@@H]1CN(c2cccc(-c3csc(NC(=O)CNC(=O)c4cccc(C(C)(C)C)c4)n3)c2)C[C@H](C)O1` [Compound 217, 3-tert-butyl-N-[2-[[4-[3-[(cis)-2,6-dimethylmorpholin-4-yl]phenyl]thiazol-2-yl]amino]-2-oxo-ethyl]benzamide]: the “BRM Max % Inhibition” value at BRM was over 95%. In addition, the results for the IC50 on BRM (read-out: BRM IC50 (μM)*) and at BRG-1 (read-out: BRG1 IC50 (μM)*) were under 0.1 µM and 0.1 to 1 µM, respectively. On BRG-1, the Emax is over 90%.

For the compound `C[Si](C)(C)c1cccc(C(=O)NCC(=O)Nc2nc(-c3cccc(-c4ccncc4)c3)cs2)c1` [Compound 248, N-[2-oxo-2-[[4-[3-(4-pyridyl)phenyl]thiazol-2-yl]amino]ethyl]-3-trimethylsilyl-benzamide], the “BRM Max % Inhibition” value at BRM is given as over 40%. For the same compound, the results for the IC50 on BRM (read-out: BRM IC50 (μM)*) and at BRG-1 (read-out: BRG1 IC50 (μM)*) were 0.1 to 1 µM and 1 to 5 µM, respectively. At BRG-1, the Emax is over 30%.

With `C[C@@]1(C#N)COCc2ccc(C(=O)NCC(=O)Nc3nc(-c4cccc([C@@H]5CC5(F)F)n4)cs3)cc21` [Compound 386, (R)-4-cyano-N-(2-((4-(6-((S)-2,2-difluorocyclopropyl)pyridin-2-yl)thiazol-2-yl)amino)-2-oxoethyl)-4-methylisochromane-6-carboxamide], the “BRM Max % Inhibition” value at BRM is over 95%. Besides, the IC50 on BRM (read-out: BRM IC50 (μM)*) was under 0.1 µM; at BRG-1 (read-out: BRG1 IC50 (μM)*), 0.1 to 1 µM. On BRG-1, the Emax is over 95%.

`CC(C)S(=O)(=O)c1cccc(C(=O)NCC(=O)Nc2nc(-c3cccc(N4C[C@@H](C)O[C@@H](C)C4)c3)cs2)c1` [Compound 14, N-(2-((4-(3-((2S,6R)-2,6-dimethylmorpholino)phenyl)thiazol-2-yl)amino)-2-oxoethyl)-3-(isopropylsulfonyl)benzamide]: on BRM, the “BRM Max % Inhibition” value is given as over 95%. The figures for the IC50 at BRM (read-out: BRM IC50 (μM)*) and at BRG-1 (read-out: BRG1 IC50 (μM)*) were under 0.1 µM and 0.1 to 1 µM, respectively. Also, the Emax at BRG-1 was over 80%.

`Cc1cncc(-c2cccc(-c3csc(NC(=O)CNC(=O)c4ccc5c(c4)[C@@](C)(CO)CC5)n3)n2)n1` [Compound 164, (S)-3-(hydroxymethyl)-3-methyl-N-(2-((4-(6-(6-methylpyrazin-2-yl)pyridin-2-yl)thiazol-2-yl)amino)-2-oxoethyl)-2,3-dihydro-1H-indene-5-carboxamide]: the “BRM Max % Inhibition” value on BRM is over 60%. The IC50 is 0.1 to 1 µM on BRM (read-out: BRM IC50 (μM)*) and over 5 µM at BRG-1 (read-out: BRG1 IC50 (μM)*). In addition, the Emax at BRG-1 is under 30%.

In the case of `Cc1cnc(O)c(-c2cccc(-c3csc(NC(=O)CNC(=O)c4ccc5c(c4)[C@@](C)(CO)CC5)n3)n2)c1` [Compound 190, (S)-N-(2-((4-(2′-hydroxy-5′-methyl-[2,3′-bipyridin]-6-yl)thiazol-2-yl)amino)-2-oxoethyl)-3-(hydroxymethyl)-3-methyl-2,3-dihydro-1H-indene-5-carboxamide], the “BRM Max % Inhibition” value at BRM is over 90%. Moreover, the IC50 on BRM (read-out: BRM IC50 (μM)*) and on BRG-1 (read-out: BRG1 IC50 (μM)*) was 0.1 to 1 µM throughout. The Emax on BRG-1 was over 70%.

Consider `COc1cccc(-c2csc(NC(=O)CNC(=O)c3ccc4c(c3)C(C)(F)CCCO4)n2)c1` (stereo in doubt) [Compound 325, (R)-5-fluoro-N-(2-((4-(3-methoxyphenyl)thiazol-2-yl)amino)-2-oxoethyl)-5-methyl-2,3,4,5-tetrahydrobenzo[b]oxepine-7-carboxamide], for which, on BRM, the “BRM Max % Inhibition” value is over 95%. The IC50 on BRM (read-out: BRM IC50 (μM)*) and at BRG-1 (read-out: BRG1 IC50 (μM)*) was 0.1 to 1 µM throughout. For the same compound, the Emax at BRG-1 is over 95%.

For the compound `C[C@H](NC(=O)c1cccc(C(C)(C)CN)c1)C(=O)Nc1nc(-c2cccc(-c3ccncc3)c2)cs1` [Compound 65, (S)-3-(1-amino-2-methylpropan-2-yl)-N-(1-oxo-1-((4-(3-(pyridin-4-yl)phenyl)thiazol-2-yl)amino)propan-2-yl)benzamide], the “BRM Max % Inhibition” value at BRM is listed as over 90%. Further, the IC50 at BRM (read-out: BRM IC50 (μM)*) and on BRG-1 (read-out: BRG1 IC50 (μM)*) was 0.1 to 1 µM in each case. For the same compound, on BRG-1, the Emax is over 95%.
